{"source": "patent US9796777B2", "about": "“Methods of treating malignant tumors” (Canimguide Therapeutics AB, priority 2007, dated 2017)", "key": {"mAb A": {"test_system": "mAb A", "settings": "second trypsination of <30 kD fragments eluted from mAb A at pH 2.7", "experimental": "MALDI epitope mapping of mAb A based on antibody protection of proteolysis was repeated. This time a slightly different approach was used. Denatured HSA was incubated with mAb A. Albumin not bound by the antibody, was removed from the sample by size exclusion on an ultra filter. The remaining free mabs and the complexes of mab-albumin was then digested with trypsin (sequences of the albumin molecule to which mab is bound should resist the trypsin digestion). Small cleaved fragments of mab and unprotected albumin was then removed from the sample by ultrafiltration (30 kD). The complexes of mAb and bound albumin fragments were dissociated by lowering the pH to 2.7. Again ultrafiltration at 30 kD was performed to separate whole mAb from albumin fragments smaller than 30 kD.\nDenatured HSA (80 μg) was incubated with mAb A (10 μg) in PBS for 18 h at room temperature. […] The retentate was diluted in 25 mM NH4HCO3 and again centrifuged as described above. The retentate was transferred to a sterile eppendorf microcentrifuge tube in 0.4 ml 25 mM NH4HCO3 and 0.4 μg sequencing grade modified trypsin (Promega) was added. Digestion was carried out at 37° C. over night with gentle agitation. Trypsin and free (not antibody-bound) albumin fragments were removed by ultrafiltration on a Amicon Ultra-4 filter (mw cut-off 30 000 Da, Millipore Co.) for 5 min at 3000 rpm. This was repeated three times. The retentate was then transferred to a new ultra filter where the mAb A was disassociated from bound albumin by the addition of 600 μl 0.1 M glycine-HCl, pH 2.7, for 30 min at room temperature after which the ultra filter was centrifuged for 10 min at 3000 rpm. The filtrate was transferred to a sterile Eppendorf microcentrifuge tube and neutralized with Tris-HCl, pH 9. The sample was then immediately dried over night in a SpeedVac vacuum concentrator. The samples were then dissolved in 16 μl of sequencing grade modified trypsin (at 5 μg/ml) (Promega) and incubated at 37° C. for 18 hours. Zip Tip pipette tips (Millipore) containing C18 chromatorgraphy media were used for desalting before the sample was analysed by MALDI TOF ms (see below).\n1 μl of each sample of the tryptic digestion was mixed with 1 μl of a saturated solution of α-cyano-4-hydroxycinamic acid ([…]) in 70% acetonitrile/0.3% trifluoro acetic acid. 1 μl of that mixture was spotted on a stainless steel target plate and analysed using MALDI-TOF ms (Voyager-DE PRO, Applied Biosystems, CA, US) equipped with a 337 nm N2 laser. Database searches for masses corresponding to human serum albumin in the resulting spectra were performed in NCBI or SwissProt with MS-Fit as search engine."}, "[1]": {"test_system": "cell surface receptors of immune cells (ACS)", "assay": "Adsorption of enzyme fragmented dHSA on affinity column with biotinylated cell surface proteins (ACS), MALDI-TOF ms", "assay_type": "binding, human", "experimental": "Based on the observation that immunoregulatory peptide sequences are present in serum albumin, there is the possibility that other sequences than the epitope of mAb A have immunoregulatory function. Therefore an artificial cell surface (ACS) was prepared as described in materials and methods. […]\nTo remove unfragmented albumin and enzyme, the sample was ultra filtered through an Amicon Ultra 4 (mw cut-off of 5000) or a Centriplus (mw cut-off 10000) centrifugal filter (Millipore AB, Solna, Sweden). The filtrate, containing fragmented dHSA without enzymes, was collected and diluted with PBS with Ca and Mg (GIBCO).\nBuffy coats generated from 450 ml blood each was collected from 4 healthy donors. Erythrocytes were removed by sedimentation on 2% dextran T500 solution (Amersham Pharmacia Biotech AB, Uppsala Sweden) in 0.9% NaCl. Mononuclear cells (PBMC) were then isolated by Ficoll-Paque Plus (GE Healthcare Bioscience AB Sweden) density gradient centrifugation. The PBMC were then suspended in phosphate buffered saline (PBS) containing Ca and Mg (GIBCO) at a concentration of 10×10^6/ml. EZ Link Sulfo-NHS-biotin (Pierce USA) was added at a final concentration of 0.2 mg/ml and the mixture incubated on a shaker at room temperature for 10 min. Excess biotin was then removed by washing the PBMC in PBS. Biotinylated PBMC were then lysed by adding 1.0 ml ice-cold lysing buffer (50 mM Tris-HCL, pH 7.5, with 0.15 M NaCl, 5 mM MgCl2 containing 100 mM Octyl glucoside and 1 mM Phenylmethylsulfonyl fluoride) per 2×10^7 pelleted cells with gentle shaking, then incubated for 30 min. on ice. Debris was removed by centrifugation at 5000×g at 4° C. for 10 min and the supernatants was collected and pooled from all four donors. The lysate was then stored at −70° C. in polypropylene plastic tubes.\nThis amount of lysate corresponds to 36×10^7 mononuclear cells. It was added to a 1 ml Hitrap Streptavidin HP affinity column (Amersham Biosciences). To block possible remaining free biotin, 5 ml of 0.1 M glycine (Sigma) was added to the column. Unsaturated streptavidin on the column was then reacted with 150 ug biotin (Sigma) in binding buffer. The column was carefully washed with PBS and stored in PBS with 0.1% NaN3 at 4° C. until use.\n27 ml biotinylated cell lysate in binding buffer (corresponding to 54×10^7 mononuclear cells) was added to 1.5 ml washed Streptavidin Sepharose HP (Amersham Biosciences). To block possible remaining free biotin, 25 ml of 0.1 M glycine (Sigma) was added to the Streptavidin Sepharose. Unsaturated streptavidin was then reacted with 225 μg biotin (Sigma) in binding buffer. The Streptavidin Sepharose was carefully washed in PBS. One ml of the biotinylated cell lysate coupled Streptavidin Sepharose was then packed in an empty column (Tricorn Empty High Performance Column, Amersham Bioscience) and washed with phosphate buffered saline (PBS) containing Ca and Mg (GIBCO).\nThe flow-through was collected with consideration taken to void volume and dilution of adsorbed sample by collecting in small portions of 0.2 ml. Thirty ul of each sample, including a control sample that has not been adsorbed, were dried in a Speed-Vac centrifuge.\nDried samples were reconstituted in 10 ul of 0.1% TFA. Zip Tip pipette tips (Millipore, USA) containing C18 reversed-phase media were used for desalting reconstituted samples. […] For the analysis of samples in the mass range 1500-9000 Da, one μl of each Zip Tip eluted sample was mixed with 1 μl of sinapinic acid ([…]). […] Mass identity search of resulting spectra was performed in the SwissProt or NCBI databases using MS-Fit."}, "PBMC [2]": {"test_system": "PBMC", "assay": "LPS-induced IL-6 production by PBMC, effect of peptides", "assay_type": "cell-based, human", "experimental": "100 μl of culture medium consisting of RPMI1640 supplemented with 200 IU/ml penicillin, 200 μg/ml streptomycin, 4 mM L-glutamine (Sigma Chemical, Mo., US) and 20% fresh heat-inactivated autologous serum were added to un-coated or -pre-coated microtiter plates followed by 100 μl of PBMC suspension (5×10^4 lymphocytes) in RPMI/2% HSA with peptides at the indicated concentrations. Lipoplysaccharide (LPS, Sigma Chemical Co, MO, US) was added at a final concentration of 0.05 ng/ml. […] All assay conditions were set up in triplicate wells. Supernatants (SNs) were harvested after 24 hrs and residual cells were removed by centrifugation in a refrigerated centrifuge (Beckman) at 2600×g for 5 minutes. SNs were frozen and stored at −70° C. IL-6 in cell culture SNs was measured by ELISA using the DuoSet® ELISA development kit for human IL-6 (R&D Systems Europe, Ltd., Abingdon, UK) following the manufacturer's recommended procedures. The lower limit of detection was 3.1 pg/ml. Samples were analysed as mean of triplicate wells."}, "[3]": {"target": "T1, β2-integrin LFA-1 (CD11a) (Homo sapiens, UniProt P20701)", "T1 construct": "endogenous in cells; host or cells: human PBMC (healthy controls, cancer patients) and THP-1 monocytic cell line (ATCC)", "T1 sequence (P20701 26-1170)": "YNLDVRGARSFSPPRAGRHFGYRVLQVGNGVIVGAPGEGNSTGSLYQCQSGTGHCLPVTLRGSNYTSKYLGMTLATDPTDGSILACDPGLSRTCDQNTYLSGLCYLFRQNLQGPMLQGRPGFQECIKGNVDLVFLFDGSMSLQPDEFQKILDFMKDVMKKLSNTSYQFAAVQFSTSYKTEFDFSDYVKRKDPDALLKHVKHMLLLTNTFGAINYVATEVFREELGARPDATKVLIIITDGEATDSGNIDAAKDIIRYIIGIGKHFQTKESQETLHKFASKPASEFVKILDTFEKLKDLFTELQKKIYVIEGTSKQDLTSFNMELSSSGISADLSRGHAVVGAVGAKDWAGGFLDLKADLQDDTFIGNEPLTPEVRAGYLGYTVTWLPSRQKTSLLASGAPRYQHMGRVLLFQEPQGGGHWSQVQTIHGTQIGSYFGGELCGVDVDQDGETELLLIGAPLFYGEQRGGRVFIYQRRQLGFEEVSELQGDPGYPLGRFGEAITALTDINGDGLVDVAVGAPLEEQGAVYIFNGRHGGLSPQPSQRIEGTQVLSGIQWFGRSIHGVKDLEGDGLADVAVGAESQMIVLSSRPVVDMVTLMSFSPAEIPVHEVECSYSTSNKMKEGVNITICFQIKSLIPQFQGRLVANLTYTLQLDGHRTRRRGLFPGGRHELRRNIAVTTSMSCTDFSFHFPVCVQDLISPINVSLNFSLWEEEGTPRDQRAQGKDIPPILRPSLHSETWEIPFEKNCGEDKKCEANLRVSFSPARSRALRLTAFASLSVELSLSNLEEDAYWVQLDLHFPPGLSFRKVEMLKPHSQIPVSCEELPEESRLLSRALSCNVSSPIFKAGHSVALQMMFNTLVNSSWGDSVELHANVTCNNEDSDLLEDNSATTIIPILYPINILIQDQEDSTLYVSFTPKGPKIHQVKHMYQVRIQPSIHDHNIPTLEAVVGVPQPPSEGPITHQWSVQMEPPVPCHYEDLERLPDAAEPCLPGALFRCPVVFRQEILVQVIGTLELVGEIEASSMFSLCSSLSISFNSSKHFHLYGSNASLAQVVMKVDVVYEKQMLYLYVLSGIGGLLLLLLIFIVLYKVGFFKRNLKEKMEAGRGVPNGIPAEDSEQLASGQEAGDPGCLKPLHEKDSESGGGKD", "T1 sequence (P05107 23-769 partner)": "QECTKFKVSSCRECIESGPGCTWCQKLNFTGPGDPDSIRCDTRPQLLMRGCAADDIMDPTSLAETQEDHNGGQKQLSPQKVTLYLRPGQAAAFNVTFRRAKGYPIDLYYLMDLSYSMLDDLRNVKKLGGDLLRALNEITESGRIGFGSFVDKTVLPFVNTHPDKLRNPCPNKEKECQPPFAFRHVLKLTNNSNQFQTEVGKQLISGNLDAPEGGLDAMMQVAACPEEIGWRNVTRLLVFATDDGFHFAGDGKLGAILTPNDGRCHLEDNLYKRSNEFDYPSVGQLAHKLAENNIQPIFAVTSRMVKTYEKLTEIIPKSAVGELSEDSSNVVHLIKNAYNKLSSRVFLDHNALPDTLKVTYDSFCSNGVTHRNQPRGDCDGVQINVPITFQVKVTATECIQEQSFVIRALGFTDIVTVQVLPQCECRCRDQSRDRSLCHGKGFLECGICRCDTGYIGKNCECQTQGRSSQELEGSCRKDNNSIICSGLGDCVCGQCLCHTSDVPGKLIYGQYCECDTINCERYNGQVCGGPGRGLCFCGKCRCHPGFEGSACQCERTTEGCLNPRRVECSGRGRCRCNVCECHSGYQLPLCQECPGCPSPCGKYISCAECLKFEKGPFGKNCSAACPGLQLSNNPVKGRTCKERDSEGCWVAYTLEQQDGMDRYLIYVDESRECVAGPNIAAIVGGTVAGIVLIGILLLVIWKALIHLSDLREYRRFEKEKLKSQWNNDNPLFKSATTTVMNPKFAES", "assay": "Immunocytochemical staining of PBMC and THP-1 with anti-integrin (CD11a) antibody with or without albumin peptides", "assay_type": "binding", "settings": "monocytic cell line THP-1; peptide 40 μg/ml preincubation", "experimental": "Cytospin preparations of mononuclear blood cells from healthy controls, cancer patients and a monocytic cell line, THP-1, were prepared (as described under materials and methods), dried and stored at −70° C. In the immunocytological staining, unspecific staining was blocked by incubation with 10% human AB serum. Some of the slides were preincubated for 60 minutes with albumin peptides at a concentration of 40 μg/ml, added to this 10% AB serum, as indicated in the FIG. 8 A-F. The staining procedure was then continued as described in material and methods. The staining intensity of slides stained with and without preincubation with the peptides was recorded semi quantitatively using a standard light microscope.\nPBMC were separated as described above. Cultured THP-1 cells (obtained from the American Type Culture Collection through LGL Nordic AB, Sweden) were carefully washed and suspended in RPMI1640. PBMC and THP-1 were immediately spun down on pre-cleaned microscope slides in a Shandon Cytospin (Shandon Scientific Ltd, UK) at 1000 RPM for 7 min at 2.5 or 5×10^4 cells per slide. The slides were left to dry at room temperature over night, after which they were wrapped in parafilm and stored at −70° C. Immediately before use, the cytospins were thawed and fixed with acetone for 5 min at room temperature. The cytospins were first blocked with 10% normal human AB-serum with and without albumin peptides (40 ␣g/ml) for 1 h before staining. Primary antibody, consisting of a monoclonal mouse anti-human CD11a (clone HI111, BD Biosciences) diluted in Tris buffered saline (TBS, pH 7.6) at 5 μg/ml (THP-1) or 1 µg/ml (PBMC), was added. The slides were incubated for 30 min and then washed in TBS followed by Envision-Alkaline Phosphatase (Dako Norden A/S, Denmark) for 30 min. After additional washing in TBS, the slides were incubated in alkaline phoshatase substrate consisting of Fast Red TR salt (Sigma), naphtol AS-MX (Sigma) and 5 mM levamisol (Sigma) to block endogenous alkaline phosphatase activity, for 20 min followed by washing in TBS. They were then counterstained in Mayer's haematoxylin for 1 minute and mounted in Glycergel (Dako Norden NS). Monoclonal mouse IgG1 against an irrelevant antigen (Aspergillus niger glukosoxidase, Dako Norden NS) was used as a negative control. All incubations were performed at room temperature in a moist chamber.\nFIG. 24. Inhibition of the binding of anti-LFA-1, mab HI111, to mononuclear blood cells by 3028 peptide and fragments 3325 and 3218. A standard immunohistochemical staining procedure using acetone fixation, 10% human AB-serum for blocking, incubation with HI 111 and a secondary antibody (Ultravision, an alkaline phosphate conjugated polymer attached to Fab-fragments of goat anti-mouse Ig), followed by development with Fast Red. The slides were then mounted in Glycergel. Preincubation with peptides added to the AB serum was as follows: A. No peptide added, B. peptide 3028, C. The C-terminal part (3218), and D. The N-terminal part (3325)."}, "PBMC [4]": {"test_system": "PBMC", "assay": "IL-2 induced proliferation of PBMC with albumin peptides in coated and uncoated tissue culture plates", "assay_type": "cell-based, human", "settings": "PBMC from healthy individuals; peptide 5 μg/ml final; 7 days", "experimental": "A mixture of 1 mg/ml IgG in a solution of 9 mg/ml HSA in RPMI (HSA/IgG) was also prepared. 200 μl of HSA or HSA/IgG were then added to each well of the plate. The plates were incubated at 4° C. for 30 minutes after which the wells were washed twice with 200 μl of RPMI1640. The coated plates were used immediately. […] PBMC, isolated from healthy individuals, were diluted in RPMI/2% HSA and peptides were added directly to the cell suspension at a concentration of 10 μg/ml."}, "[5]": {"settings": "Table 5 A, peptides generated by trypsin degradation of dHSA"}}}
{"substance": "CCTESLVNR [500-508, tryptic peptide of dHSA]", "values": [{"measurement": "Peak area", "setting": "mAb A", "value": 119}, {"measurement": "Per cent adsorbed", "setting": "[1]; [5]", "value": 0.26, "unit": "Per cent"}]}
{"substance": "DDNPNLPR [tryptic peptide of dHSA]", "values": [{"measurement": "Peak area", "setting": "mAb A", "value": 534}, {"measurement": "Per cent adsorbed", "setting": "[1]; [5]", "value": 0.01, "unit": "Per cent"}]}
{"substance": "FQNALLVR [427-434, tryptic peptide of dHSA]", "values": [{"measurement": "Peak area", "setting": "mAb A", "value": 1345}, {"measurement": "Per cent adsorbed", "setting": "[1]; [5]", "value": 0.41, "unit": "Per cent"}]}
{"substance": "KLDELRDEGKAS [peptide 2606]", "values": [{"measurement": "effect on LPS induced IL-6 production", "setting": "PBMC [2]; PBMCs from one healthy control, lowest peptide concentration", "value": "inhibitory"}, {"measurement": "effect on binding of the mAb to LFA-1", "setting": "[3]", "value": "clearly enhanced"}]}
{"substance": "KVPQVSTPTLVEVSR [compound 3029]", "values": [{"measurement": "effect on LPS induced IL-6 production", "setting": "PBMC [2]; three cancer patients", "value": "essentially no effects"}, {"measurement": "effect on LPS induced IL-6 production", "setting": "PBMC [2]; two healthy controls", "value": "slight stimulatory effect in only one of the controls"}, {"measurement": "Per cent adsorbed", "setting": "[1]; [5]", "value": 0.64, "unit": "Per cent"}, {"measurement": "Per cent adsorbed", "setting": "[1]; Table 5 B, trypsin peptides selected for synthesis", "value": 0.64, "unit": "Per cent"}, {"measurement": "effect on IL-2 induced proliferation", "setting": "PBMC [4]", "value": "no statistically significant activity"}]}
{"substance": "LCTVATLR [098-105, tryptic peptide of dHSA]", "values": [{"measurement": "Peak area", "setting": "mAb A", "value": 744}, {"measurement": "Per cent adsorbed", "setting": "[1]; [5]", "value": 0.35, "unit": "Per cent"}]}
{"substance": "LDELRDEGK [206-214, tryptic peptide of dHSA]", "values": [{"measurement": "Peak area", "setting": "mAb A", "value": 644}, {"measurement": "Per cent adsorbed", "setting": "[1]; [5]", "value": 0.02, "unit": "Per cent"}]}
{"substance": "LSQRFPK", "values": [{"measurement": "Peak area", "setting": "mAb A", "value": 481}]}
{"substance": "LVNEVTEFAK [066-075, tryptic peptide of dHSA]", "values": [{"measurement": "Peak area", "setting": "mAb A", "value": 1918}, {"measurement": "Per cent adsorbed", "setting": "[1]; [5]", "value": -0.02, "unit": "Per cent"}]}
{"substance": "YLYEIAR [162-168, tryptic peptide of dHSA]", "values": [{"measurement": "Peak area", "setting": "mAb A", "value": 1035}, {"measurement": "Per cent adsorbed", "setting": "[1]; [5]", "value": 0.34, "unit": "Per cent"}]}
